From patent US20110009437A1, “CARBOXAMIDE-HETEROARYL DERIVATIVES FOR THE TREATMENT OF DIABETES” (MERCK PATENT GESELLSCHAFT MIT BESCHRANKTER HAFTUNG, priority 2008, published 2011)

Target: T1, Glucokinase (Homo sapiens, UniProt P35557)
T1 sequence (P35557 1-465): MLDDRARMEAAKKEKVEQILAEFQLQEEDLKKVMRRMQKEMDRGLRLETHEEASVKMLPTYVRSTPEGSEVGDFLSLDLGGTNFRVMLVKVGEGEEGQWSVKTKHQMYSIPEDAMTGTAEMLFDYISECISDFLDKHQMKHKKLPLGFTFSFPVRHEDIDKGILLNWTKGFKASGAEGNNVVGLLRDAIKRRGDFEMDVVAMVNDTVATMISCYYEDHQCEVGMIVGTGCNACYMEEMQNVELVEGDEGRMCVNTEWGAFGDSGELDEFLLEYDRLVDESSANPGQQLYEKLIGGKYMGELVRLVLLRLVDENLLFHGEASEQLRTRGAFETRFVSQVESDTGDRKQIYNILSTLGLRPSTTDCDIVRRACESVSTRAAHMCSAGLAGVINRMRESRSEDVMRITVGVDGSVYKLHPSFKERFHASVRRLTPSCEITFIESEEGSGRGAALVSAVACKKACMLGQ
Test: Glucokinase Activation Screening Assay (coupled enzyme assay with PK/LDH)
Format: biochemical
Settings: human GK enzyme
Description: GK activity (human or rat enzyme) is measured by a coupled enzyme assay using pyruvate kinase (PK) and lactate dehydrogenase (LDH) as coupling enzymes. GK activity is calculated from the decline in NADH monitored photometrically with a microtiter plate (MTP) reader at 340 nm. For screening purposes, the GK assay is routinely run in a 384-MTP format, in a total volume of 33 μl/well. 10 μl of the ATP-regeneration solution (in HEPES-buffer*, pH 7.0, 6.73 U/ml pyruvate kinase, 6.8 U/ml lactate dehydrogenase) and 10 μl of the glucokinase-/glucose solution (15 μg/ml, 6.6 mM glucose in HEPES-buffer*, pH 7.0; the concentration of the glucose stock-solution was 660 mM in Millipore H2O) were mixed together with […] of a 10% DMSO solution (in HEPES-buffer*, pH 7.0) containing 3.3-fold the amounts of the compounds to achieve final compound concentrations in the range between 1 nM to 30 μM (sometimes 300 μM) in the assay solution (s. below). The solutions were mixed for 5 sec, and after a centrifugation at 243×g for 5 min, the solutions were preincubated for 25 min at room temperature.
The reaction was started by the addition of 10 μl of the NADH-/ATP-solution (4.29 mM NADH, 4.95 mM ATP, in HEPES-buffer*). The MTP was shaken for 5 sec., and then, the absorbance at 340 nm was monitored continuously in a MTP-reader (TECAN Spectro fluor plus) for the next 27 min (with a MTP-cycling time of 199 sec.). The final concentrations of the various components were as follows: 49.5 mM Hepes, pH 7.0, 1.49 mM PEP,1,3 mM NADH, 49.5 mM KCl, 4.96 mM MgCl2, 1.5 mM Mg-ATP, 1.98 mM DTT, 2.04 U/ml pyruvate kinase, 2.06 U/ml lactate-dehydrogenase, 0.91% DMSO, 0.15 μg/well glucokinase, and test compounds in the range between 1 nM and […] The change in the optical density (ΔOD340 nm) in the presence of the compound was expressed relative to the ΔOD340 nm, ctrl of the control incubation (in the presence of 2 mM glucose and 0.91% DMSO), taking into account the optical density of the blank sample (incubation in the absence of 2 mM glucose). For the determination of the half maximal effective concentration (EC50), the %-Ctrl-values were plotted in a semi-logarithmic graph against the conc. of the compound of interest. The data points were fitted to a sigmoid curve function (f(x)=((%-Ctrlmax−%-Ctrlmin)/(1−(EC50/x**^n(Hill)))+%-Ctrlmin)) by a non-linear regression analysis.
*Hepes-buffer (50 mM Hepes, pH 7.0, 5 mM MgCl2, 50 mM KCl, 1.5 mM PEP, 0.1% BSA). DTT was added to the Hepes-buffer from a 200× stock solution (in Millipore H2O) freshly each day. The final concentration of DTT in the Hepes-buffer is 2 mM.

| fold activation (human) | SMILES |
| --- | --- |
| 3.4 fold | COCCN(C)c1cc(C(=O)Nc2ccn(C)n2)cc(Oc2ccccc2)n1 [B6, 2-[(2-Methoxy-ethyl)-methyl-amino]-N-(1-methyl-1H-pyrazol-3-yl)-6-phenoxy-isonicotinamide] |
| 1.4 fold | CN(Cc1ccccc1)c1cc(C(=O)Nc2ccn(C)n2)cc(Oc2ccccc2)n1 [B8, 2-(Benzyl-methyl-amino)-N-(1-methyl-1H-pyrazol-3-yl)-6-phenoxy-isonicotinamide] |
| 1.3 fold | Cn1ccc(NC(=O)c2cc(Cl)nc(Oc3ccccc3)c2)n1 [B5, 2-Chloro-N-(1-methyl-1H-pyrazol-3-yl)-6-phenoxy-isonicotinamide] |
| 1.3 fold | COCC(C)Oc1cc(OC(C)COC)nc(C(=O)Nc2ccn(C)n2)n1 (stereo not drawn) [B7, 4,6-Bis-(2-methoxy-1-methyl-ethoxy)-pyrimidine-2-carboxylic acid (1-methyl-1H-pyrazol-3-yl)-amide] |

The next lines start with the compound.

| SMILES | fold activation (human) |
| --- | --- |
| COCCN(C)c1cc(C(=O)Nc2ccn(Cc3cccnc3)n2)cc(Oc2ccccc2)n1 [B4, 2-[(2-Methoxy-ethyl)-methyl-amino]-6-phenoxy-N-(1-pyridin-3-ylmethyl-1H-pyrazol-3-yl)-isonicotinamide] | 1.8 fold |
| CN(C)c1cc(C(=O)Nc2ccn(Cc3cccnc3)n2)cc(Oc2ccccc2)n1 [B2, 2-Dimethylamino-6-phenoxy-N-(1-pyridin-3-ylmethyl-1H-pyrazol-3-yl)-isonicotinamide] | 3.3 fold |
